The text below walks through data of US9827277B2, “Sulphated polysaccharide composition” (UNIVERSITÉ BLAISE PASCAL—CLERMONT II, priority 2012, dated 2017).

The test system of series [1] is HFF (Human Foreskin Fibroblast) cells. As to the kind of experiment: Cytotoxicity test (sulforhodamine B) on HFF cells. It counts as cell-based. The protocol: Culturing of HFF (Human Foreskin Fibroblast Cells in 96-Well Plate From a 75 cm^2 flask of HFF cells at confluence, the culture medium was removed, and then 2 mL of trypsin-EDTA (0.025% trypsin and 0.01% EDTA—Ethylenediaminetetraacetic acid) was added (at 37° C.). The flask was then briefly rinsed and the trypsin was removed. 2 mL of trypsin-EDTA was subsequently added and the flask was incubated for 5 minutes in an oven at 37° C.
5 ml of culture medium (minimal essential medium—MEM (PARA Laboratories GmbH)+Glutamine (2 mM)+Fungizone (2.5 μg/mL)+Penicillin (100 units/mL)+Streptomycin (100 μg/mL)+decomplemented Foetal Calf Serum 15%) was added and then the flask was rinsed with a pipette. The medium and cells were recovered in a tube. Counting on the Malassez counting chamber was then performed.
The cells were subsequently centrifuged at 200 g, for 7 minutes, and then the supernatant was removed. The pellet was taken up in the culture medium in a manner so as to obtain 10^5 cells/mL.
200 μL of this suspension per well was distributed, while leaving empty the wells of columns 1 and 12 and rows A and H. The wells that were left empty were filled with 200 μL of culture medium in order to prevent evaporation.
When the cells had reached confluence in the wells (about 48 hours), the medium was aspirated by making use of a vacuum extractor pump and then 200 μL of culture medium containing the various polysaccharides to be tested (the latter are tested at 50, 100, and 200 μg/mL) was added.
Each concentration was tested in triplicate. […]
The proteins were solubilised by using 200 μL of Tris-Base (10 mM) for 5 minutes on a plate with stirring at ambient temperature. The OD (Optical Density) at 550 nm was measured by making use of a microplate reader (Multiskan FC357, Thermo Scientific).
The mean of the OD and the standard deviation have been calculated for each sample tested in order to arrive at a conclusion with respect to the toxicity of the products.

The subject of series [2] is Nosema ceranae. The series can be described thus: Inhibitory activity in vivo on Nosema in honey bees. The protocol:
The results presented here have been obtained from the summer honey bees.
After recovering one brood chamber frame (or more as per the needs in honey bees) from the apiary by means of a glass frame holder, the latter was placed in an oven at 34° C. for a period of 24 to 48 hours in a manner so as to allow the honey bees to emerge from their cells. Then, the young honey bees were retrieved from the frame by making use of a pair of entomologist's forceps and placed in the beekeeping boxes (supers) on the basis of 50 honey bees/box. ⅙^th of a tube stick of PseudoQueen (Contech Enterprises, Canada) was added in each of the beekeeping boxes.
Each polysaccharide treatment was carried out in triplicate (three boxes/treatment). Each test operation contained a “healthy honey bees” control (honey bees not infected and not treated), an “infected honey bees” control (honey bees infected experimentally and not treated) and a fumagillin control; with these controls also being in triplicate. […]
Over the course of the post-Infection phase (a time period of 20 days), the dead honey bees were counted and removed on a daily basis from each of the boxes in order to track and monitor mortality. […]

As for `C[S+](C)[O-]` [DMSO Positive Control, DMSO], the Conclusion entry in series [1] (HFF cells, culture medium containing 20% of DMSO, 96 hours) is on record as “Cytotoxic: control validated”. Moreover, in series [1] (HFF cells, positive control: culture medium containing 20% of DMSO, 96 hours of incubation), the “Viability (%)” value is given as 6.8 +/− 1.4%.
On to `CO[C@@H]1[C@H](OC(=O)/C=C/C=C/C=C/C=C/C(=O)O)CC[C@]2(CO2)[C@H]1[C@@]1(C)O[C@@H]1CC=C(C)C` [Fumagillin Control, fumagillin], for which, in series [2] (honey bees infected with 125,000 N. ceranae spores, syrup supplemented with 1 μg/mL fumagillin, fed 3 days before and 20 days after infection), the “Mortality at 20 days post-infection (%)” value is reported as 25.9 +/− 16.7%. For the same molecule, the “Change in parasite load (decrease)” value in series [2] (spore count at 20 days vs infected honey bees control, syrup with 1 μg/mL fumagillin) is “Decrease of 63.4%”. Besides, the “Viability (%)” value in series [1] (human, 96 h, 1 μg/mL) is listed as 99.1 +/− 12.2%.
